Laboratory results: patent US20220031687A1, “SYNERGIC PHARMACEUTICAL COMBINATION OF A LEUKOTRIENE-RECEPTOR ANTAGONIST AND AN INVERSE AGONIST OF HISTAMINE HI” (priority 2018, published 2022)

Legend:
rat tracheal rings [1] = assay: Histamine-induced contraction of isolated rat tracheal rings; assay type: cell-based
Source text: (§1) Male Wistar rats 300-350 g were sacrificed with a phenobarbital sodium overdose given by intraperitoneal route. The thoracic cavity was exposed, the neck was dissected, and the trachea was removed 1 mm above the tracheal bifurcation and 1 mm below the thyroid cartilage. The sample was submerged in cold Krebs-Henseleit solution bubbled with 95% 02 and 5% CO2, and 3 mm-thick rings were cut. Each ring was placed in an isolated organ chamber, with its bottom anchored by means of a stainless-steel hook and another hook connected to a tension transducer. The chamber was then filled with Krebs-Henseleit solution at 36° C. bubbled with 95% 02 and 5% CO2, pH 7.4±0.5. […]
(§2) The antagonist's effects to their own agonists were analyzed using dose-response curves of the agonists in tracheal rings incubated with different antagonists' concentrations. […]
(§3) The half maximal effective concentration (EC50) of each dose-response curve of the analyzed agonists was obtained using the sigmoid model, wherein: y=a+(b−a)/(1+10^(logx0-x)*x p)). […]
(§4) Data are presented as mean±standard deviation of 2 rings obtained from each of the tracheas of 5 rats. Data were analyzed with the one-way ANOVA test with a Dunett's post-test. EC50's were determined by means of the sigmoid model and the 40 percent of effects was obtained using a linear regression. The t and T values were determined based on a t-values table.

[2] = cited from earlier work
[3] = cited from earlier work; for bioavailability / time to maximum plasma concentration: oral administration
rat tracheal rings [4] = assay: LTD4-induced contraction of isolated rat tracheal rings; assay type: cell-based
Source text: as §1, with “.” for “Male Wistar rats 300-350 g were sacrificed with a phenobarbital sodium overdose given by intraperitoneal route.”, “7.4±0.5. Two washes were performed, and a 1.5 g load was applied to each ring and were left to rest for 60 minutes.” for “7.4±0.5.”
as §2, §3, §4

In the case of `NCCc1c[nH]cn1` [histamine, 2-(4-imidazol) ethylamine], the EC50 (rat tracheal rings [1]; Rattus norvegicus, cumulative administration, normalised to acetylcholine 0.1 mM = 100%, read-out: EC50 of concentration-dependent contraction of rat tracheal rings) is reported as 3540 nM.

In the case of `CN1CCC(=C2c3ccccc3CC(=O)c3sccc32)CC1` [ketotifen, 4,9-Dihydro-4-(1-methyl-4-piperidylidene)-10H-benzo(4,5)cyclohepta[1,2-b]thiophen-10-one], the plasma protein binding [2] is given as 75%, the “blocking of the contraction induced by the highest histamine concentration” value (rat tracheal rings [1]; 100 μM ketotifen) is given as 65% and the “excreted in urine as metabolites” value ([3]; first 48 hours) is given as 60 to 70%. For the same molecule, the “excreted unaltered in urine” value ([3]; first 48 hours) was “Approximately 1%”, the “first pass effect of the liver metabolism” value ([3]; glucuronidation and demethylation) was “approximately 50%” and the “long half-life (biphasic elimination)” value ([3]; in vivo) was 21 h. For the same molecule, the “short half-life (biphasic elimination)” value ([3]; in vivo) was 3 to 5 h, the therapeutic plasma concentrations ([3]; in vivo) was 1 to 4 µg/mL and the bioavailability [3] was “approximately 50%”. For the same molecule, the “time to maximum plasma concentration” value [3] was 2 to 4 h and the fecal excretion ([3]; up to) was 30 to 40%.

`CCCCC/C=C\C\C=C/C=C/C=C/[C@@H](SC[C@H](N)C(=O)NCC(=O)O)[C@@H](O)CCCC(=O)O` [LTD4, leukotriene D4] showed an EC50 (rat tracheal rings [4]; cumulative administration, normalised to acetylcholine 0.1 mM = 100%, read-out: EC50 of concentration-dependent contraction of rat tracheal rings) of 42.6 nM.

For `CC(C)(O)c1ccccc1CC[C@@H](SCC1(CC(=O)O)CC1)c1cccc(/C=C/c2ccc3ccc(Cl)cc3n2)c1` [montelukast, 1-[[[(1R)-1-[3-[(1E)-2-(7-chloro-2-quinolinyl)ethenyl]phenyl]-3-[2-(1-hydroxy-1-methylethyl)phenyl]propyl]thio]methyl] cyclopropaneacetic acid], the plasma protein binding [2] is given as 99%, the biological half-life ([3]; in vivo) is given as 2.7-5.5 hours and the bioavailability [3] is given as 64%. The “time to maximum plasma concentration” value [3] was 2 to 4 h and the “blocking of the contraction induced by the highest LTD4 concentration” value (rat tracheal rings [4]; 30 μM montelukast) was 75%.
